Reference: US4355024A, “Method and feed for stimulating the growth of animals” (priority 1979, dated 1982)
“And” between values parts separate entries of the source, which are not always exact repeats. Identical values can stand only once. Peptide text beside a SMILES is read from it.

Assay: Growth stimulation in rats fed chow containing the additive (body weight over 15 days)
Assay type: in vivo, Wistar strain rats
Settings: 0.25% wt/wt in feed; for Mean Body Weight, experimental animals: 10 male Wistar rats; for Body Weight of Animals (individual experimental animals): male Wistar rats
Protocol: Two groups of 10 Wistar strain rats each, all males to avoid estrus cyclical changes in the 15-day experimental period, were kept in two separate stock cages in an animal room maintained at 25° C. with an automatic 12-hour light-12-hour-dark cycle. Dry standard laboratory chow pellets were made up into a wet mash by adding a 1:1 mixture of water (wt/wt), which then was compressed by hand into balls weighing approximately 20 grams each. To each 20 g ball made for the experimental group, 50 mg of the methyl ester of L-aspartyl-L-phenylalanine was added, which represents a 0.25% wt/wt admixture. More than adequate food was made freely available to the animals at all times and drinking water was made available ad libitum. All individual rats were numbered by a colored stripe system marked on the tail. The animals were weighed on a balance to an accuracy of 1 gram at the start of the experiment (3 days after arrival in the cages to allow them to adjust to their new environment). They were then weighed again after 2, 4, 6, 8, 10, 12 and 14 days from the start of the new diet (i.e., days 3, 5, 7, 9, 11, 13 and 15 of the experiment). The rates of growth of the control and experimental animals is summarized in tabular form below: […]

[1] = Day 1 (start of diet, baseline)

Which results are given for COC(=O)[C@H](Cc1ccccc1)NC(=O)[C@@H](N)CC(=O)O [methyl ester of L-aspartyl-L-phenylalanine] (H-Asp-Phe-OMe)?
Mean Body Weight, experimental animals [1]: 102.6 grams; Mean Body Weight, experimental animals (Day 3): 117.8 grams; Mean Body Weight, experimental animals (Day 5): 133.4 grams; Mean Body Weight, experimental animals (Day 7): 149.8 grams; Mean Body Weight, experimental animals (Day 9): 166.8 grams; Mean Body Weight, experimental animals (Day 11): 183.1 grams; Mean Body Weight, experimental animals (Day 13): 199.9 grams; Mean Body Weight, experimental animals (Day 15): 215.9 grams; Body Weight of Animals (individual experimental animals) [1]: 94 grams and 105 grams and 96 grams and 110 grams and 102 grams and 98 grams and 104 grams and 95 grams and 114 grams and 108 grams; Body Weight of Animals (individual experimental animals) (Day 3): 112 grams and 119 grams and 110 grams and 128 grams and 120 grams and 109 grams and 129 grams; Body Weight of Animals (individual experimental animals) (Day 5): 130 grams and 135 grams and 126 grams and 145 grams and 134 grams and 127 grams and 124 grams; Body Weight of Animals (individual experimental animals) (Day 7): 148 grams and 153 grams and 143 grams and 161 grams and 150 grams and 149 grams and 140 grams and 162 grams; Body Weight of Animals (individual experimental animals) (Day 9): 169 grams and 160 grams and 161 grams and 178 grams and 166 grams and 158 grams and 165 grams and 155 grams and 180 grams; Body Weight of Animals (individual experimental animals) (Day 11): 184 grams and 188 grams and 180 grams and 193 grams and 183 grams and 172 grams and 181 grams and 169 grams and 197 grams; Body Weight of Animals (individual experimental animals) (Day 13): 203 grams and 204 grams and 195 grams and 209 grams and 202 grams and 186 grams and 200 grams and 184 grams and 213 grams; Body Weight of Animals (individual experimental animals) (Day 15): 220 grams and 223 grams and 211 grams and 226 grams and 217 grams and 201 grams and 215 grams and 198 grams and 227 grams and 221 grams; mean body weight of the experimental group higher than the mean body weight of the control group (rats, after 2 weeks): about 34%; increase in body weight versus control (in words) (rats, beginning with the seventh day of the experiment): significant increases in body weight
